Reference: paper PMC7113582, “Peptide Self-Assembly Is Linked to Antibacterial, but Not Antifungal, Activity of Histatin 5 Derivatives” (mSphere, 2020)

What was measured:
[1] = system: Candida albicans (SC5341); test: FITC uptake assay (membrane permeabilization); type: cell-based; settings: C. albicans 2 × 10^7 cells per ml, 10 mM sodium phosphate buffer pH 7.4, 250 μg/ml peptide, 6 h at 30°C; no-peptide control 1%
Protocol: This assay was adapted from a previously reported method ([53]). Candida albicans (SC5341) cells were suspended (2 × 10^7 cells per ml) in 10 mM sodium phosphate buffer (pH 7.4) and treated with each of the peptides for 6 h at 30°C. Samples were then incubated with 6 μg/ml FITC (the stock solution is 10 mg/ml in acetone) plus 10 mM sodium phosphate buffer at 30°C for 30 min. A 10-μl volume of each sample was plated on an individual glass slide, and the slides were then washed with 10 mM sodium phosphate buffer thrice and examined using an Eclipse E600 fluorescence microscope (Nikon, Japan). The results presented are representative of three independent experiments.

[2] = Self-assembly observed by transmission electron microscopy; type: physicochemical; settings: 1 mg/ml in water, heated 50 min at 90°C, cooled gradually to 25°C overnight; negative stain TEM
Protocol: Lyophilized powders of each of the peptides (Genscript Biotech, USA) were dissolved in ultrapure water (BioInd, Israel) to a concentration of 1 mg/ml and heated for 50 min at 90°C, allowing the peptides to reach the monomeric state, and were then allowed to cool gradually to 25°C overnight. This treatment facilitated the self-assembly and nanostructure formation of L7F but not dhvar2.
TEM imaging was performed by applying 10-μl samples to 400-mesh copper grids covered by a carbon-stabilized Formvar film (SPI, West Chester, PA, USA). The samples were allowed to adsorb for 2 min before excess fluid was blotted off. Negative staining was then achieved by depositing 10 μl of 2% uranyl acetate on the grid for 2 min before blotting off excess fluid. Micrographs were obtained using a Tecnai 12 electron microscope (FEI, Tokyo, Japan) operating at 120 kV.

S. epidermidis = test: Bacterial kinetic growth inhibition analysis, S. epidermidis; type: cell-based, Staphylococcus epidermidis
[3] = system: E. coli bacteria (ATCC 25922); test: Bacterial kinetic growth inhibition analysis, E. coli; type: cell-based, Escherichia coli
Protocol: Each of the peptides was diluted by serial 2-fold dilutions in M9 minimal media in Corning (3879) 96-well plates (Sigma-Aldrich, Israel). E. coli bacteria (ATCC 25922) were grown overnight in M9 minimal media and diluted 1,000-fold in M9 media and grown for 5 h at 37°C. In Corning (3596) 96-well plates, 75-μl volumes of the serial 2-fold dilutions of each test compound were added to 75 μl of growth medium containing bacteria (5 × 10̂^6 CFU/ml). Bacteria and test compounds were incubated overnight at 37°C, and kinetic growth inhibition was determined by measurements of optical density at 600 nm using a Biotek Synergy HT microplate reader.

[4] = Lipid/PDA vesicle fluorescent chromatic response, DOPE-containing model membrane; settings: DOPE/DMPG/ErgS/PDA SUVs; peptide 1 mg/ml stock, Tris-base buffer pH 8.0, 27°C, %FCR
Protocol: (§1) Vesicles containing the diacetylene monomer 10,12-tricosadiynoic acid (TRCDA) and the lipid and ergosterol components DOPC/DMPG/ErgS/PDA and DOPE/DMPG/ErgS/PDA (1:0.6:0.4:3) were dissolved in chloroform/ethanol (1:1) and dried together in vacuo to reach a constant weight, followed by addition of deionized water to reach a final concentration of 1 mM, and were subsequently subjected to probe sonication at 40 W at 70°C for 3 min. The vesicle solution was subsequently cooled at room temperature and kept at 4°C overnight. The solution was then irradiated at 254 nm for 30s, resulting in intense blue color appearance due to polymerization of the diacethylene units.
(§2) Fluorescence was measured on a Fluscan Ascent microplate reader using a 96-well microplate (Grainer), excitation at 485 nm and emission at 555 nm, and long-pass (LP) filters with normal slits. The background fluorescence from the vesicles alone was negligible. Samples were prepared for fluorescence measurements by adding 30 μl of each of the peptides at 1 mg/ml to 30 μl of lipid/PDA vesicles followed by addition of 30 μl 50 mM Tris-base buffer (pH = 8.0). The samples were incubated at 27°C during the measurements. […]

[5] = Lipid/PDA vesicle fluorescent chromatic response, DOPC-containing model membrane; settings: DOPC/DMPG/ErgS/PDA SUVs; peptide 1 mg/ml stock, Tris-base buffer pH 8.0, 27°C, %FCR
Protocol: as §1, §2

[6] = kinetic growth inhibition, OD600

Sequence	FITC positive fluorescence (membrane permeabilization) [1] [%]	self-assembly / morphology of assemblies (TEM) [2]	antibacterial activity, fold more active than dhvar2 (S. epidermidis; [6]) [fold]	peptide concentration that completely inhibited growth (S. epidermidis; serial 2-fold dilutions, OD600, representative of three experiments) [µg/mL]	antibacterial activity, fold more active than dhvar2 [3, 6] [fold]	peptide concentration that completely inhibited growth ([3]; serial 2-fold dilutions, 37°C, OD600, representative of three experiments) [µg/mL]	fluorescent chromatic response, fold lower than that to L7F [4] [fold]	colorimetric response, fold lower than that to L7F [5] [fold]
KRLFKEFLFSLRKY [L7F, single-amino-acid mutation L7F of dhvar2 (…), self-assembling derivative]	95	long, unbranched nanoassemblies	2	250	4	125	–	–
KRLFKELLFSLRKY [dhvar2, well-characterized histatin 5 derivative, …, reference compound]	95	no ordered assemblies	–	–	–	–	2	2
